Two compounds from ChEMBL document CHEMBL1159243, “Chemical and biological investigation of the polar constituents of the starfish Luidia clathrata, collected in the Gulf of Mexico” (1995) can be followed below.

The structures appear in SMILES notation.

In assay [1] the test system is Bacillus subtilis. The experiment in a line: Antimicrobial activity against Bacillus subtilis at 50 ug/disk after 24 to 72 hrs. The settings on record: read-out: IZ. In kind it is functional.
In assay [2] the test system is Staphylococcus aureus. The assay is described as follows: Antimicrobial activity against Staphylococcus aureus at 50 ug/disk after 24 to 72 hrs. Type of assay: functional. The conditions noted are these: read-out: IZ.

As to `CC(C)[C@@H](O)CC[C@@H](C)[C@H]1C[C@H](OS(=O)(=O)O)[C@H]2[C@@H]3C[C@@H](O)[C@@]4(O)C[C@@H](O)CC[C@]4(C)[C@H]3CC[C@@]21C`, the zone of inhibition at 50 µg/disc in assay [1] amounted to 3 mm; in assay [2], 1 mm.

With `C[C@H](CO)CCC[C@@H](C)[C@H]1[C@@H](O)[C@H](O)[C@H]2[C@@H]3[C@H](O)[C@@H](O)[C@H]4C[C@@H](O)CC[C@]4(C)[C@H]3CC[C@]12C`, the zone of inhibition at 50 µg/disc in assay [1] turned out to be 2 mm; in assay [2], 1 mm.
